This passage reports IC50 results from US11827628B2, “Compositions and methods for inhibition of the JAK pathway” (Rigel Pharmaceuticals, Inc., priority 2005, dated 2023).

Assay [1] concerns IL-4 stimulated expression of CD23 in human Ramos B cells (JAK-1 and JAK-3). Nature of the assay: Assay for Ramos B-Cell Line Stimulated with IL-4 (CD23 upregulation, FACS). It counts as cell-based. As to conditions: read-out: IC50, Example 41. The essentials:
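Steps: Ramos B cells are suspended in RPMI with 5% serum, exposed to compound for 1 h at 37 °C, stimulated with IL-4 (final 50 units/mL) for 20-24 h, stained for CD23 and analysed by flow cytometry. IC50 is calculated.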

The subject of another assay is Primary human T-cells. As to the kind of experiment: Primary Human T-Cell Proliferation Assay Stimulated with IL-2 (CellTiter-Glo). As to conditions: read-out: IC50, Example 42. It counts as cell-based. Summed up: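 Peripheral blood T-cells pre-activated with anti-CD3/anti-CD28 and IL-2 were washed free of IL-2, then cultured with compound plus IL-2 for 72 hours at 37° C, duplicate wells. Viability read as ATP by CellTiter-Glo luminescence; IC50 reported.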
(In general: Cellular ATP, detected with luciferase, serves as a proxy for viable cell number.)

Setting [2] is: Homo sapiens, Ramos, Ramos B-cell line stimulated with IL-4, CD23 expression by FACS.
[3] abbreviates: Homo sapiens, T-cell, primary human T-cell proliferation stimulated with IL-2.
Where [4] appears, read: Ramos B cells stimulated with IL-4, CD23 expression by FACS.
Where [5] appears, read: primary human T-cells stimulated with IL-2, proliferation.
Where [6] appears, read: Homo sapiens, Ramos, Ramos B cells stimulated with IL-4, CD23 expression by FACS.
The mark [7] stands for this setting: Homo sapiens, T-cell, primary human T-cells stimulated with IL-2, proliferation.

The term IC50 denotes the point on the concentration scale where inhibition reaches its midpoint.

Molecules are shown by their SMILES. Where a name gives a salt, the structure may show the parent alone. Read-outs that look alike come from different tables or passages of the source.

`NS(=O)(=O)c1cccc(Nc2ncc(F)c(Nc3ccc(Cc4ccccc4)cc3)n2)c1` [III-62, N2-(3-Aminosulfonylphenyl)-N4-(4-benzylphenyl)-5-fluoro-2,4-pyrimidinediamine]: the half-inhibitory concentration (IC50) turned out to be 172 nM in assay [1] (setting [2]) and 699 nM in the assay on Primary human T-cells (setting [3]).
With `NS(=O)(=O)c1cccc(Nc2ncc(F)c(Nc3ccc(Cc4ccncc4)cc3)n2)c1` [III-73, N2-(3-Aminosulfonylphenyl)-5-fluoro-N4-[4-(4-pyridylmethyl)phenyl]-2,4-pyrimidinediamine Hydrochloride Salt], the IC50 in assay [1] (Ramos B-cell line stimulated with IL-4, CD23 expression by FACS, Hydrochloride Salt) amounted to 131 nM; in the assay with Primary human T-cells (primary human T-cell proliferation stimulated with IL-2, Hydrochloride Salt) it was 434 nM.
On to `NS(=O)(=O)c1ccc(Nc2ncc(F)c(NCCc3ccc(-c4ccncc4)cc3)n2)cc1` [III-79, N2-(4-Aminosulfonylphenyl)-5-fluoro-N4-[4-(4-pyridinyl)phenethyl]-2,4-pyrimidinediamine], for which the IC50 in assay [1] (setting [2]) was found to be 169 nM; with Primary human T-cells (setting [3]), 967 nM.
For the compound `NS(=O)(=O)c1cccc(Nc2ncc(F)c(Nc3ccc(Cc4cc[n+]([O-])cc4)cc3)n2)c1` [III-80, N2-(3-Aminosulfonylphenyl)-5-fluoro-N4-[4-(1-oxido-4-pyridylmethyl)phenyl]-2,4-pyrimidinediamine], the 50% inhibitory concentration (IC50) in assay [1] (setting [2]) was 3160 nM; with Primary human T-cells (setting [3]) it was 844 nM.
Consider `CCN(CC)CCNS(=O)(=O)c1ccc(Nc2ncc(F)c(Nc3ccc(Cn4ccnc4)cc3)n2)cc1` [III-84, N2-[4-(2-N,N-Diethylaminoethyl)aminosulfonylphenyl)-5-fluoro-N4-[4-(1-imidazolylmethyl)phenyl]-2,4-pyrimidinediamine], for which the concentration for half-maximal inhibition (IC50) was determined as 443 nM in assay [1] (Ramos B-cell line stimulated with IL-4, CD23 expression by FACS) and 1900 nM in the assay with Primary human T-cells (primary human T-cell proliferation stimulated with IL-2).
For the compound `Cc1ccc(Nc2ncc(F)c(Nc3ccc(Cn4ccnc4C)cc3)n2)cc1S(N)(=O)=O` [III-91, N2-(3-Aminosulfonyl-4-methylphenyl)-5-fluoro-N4-[4-(2-methyl-1-imidazolylmethyl)phenyl]-2,4-pyrimidinediamine], the results for the concentration for half-maximal inhibition (IC50) (in assay [1] (setting [4]); with Primary human T-cells (setting [5])) were 143 nM and 467 nM, respectively.
The matching figures for `Cc1nccn1Cc1ccc(Nc2nc(Nc3ccc(S(N)(=O)=O)cc3)ncc2F)cc1` [III-92, N2-(4-Aminosulfonylphenyl)-5-fluoro-N4-[4-(2-methyl-1-imidazolylmethyl)phenyl]-2,4-pyrimidinediamine]: 323 nM and 1900 nM.
As for `CNS(=O)(=O)c1cc(Nc2ncc(F)c(Nc3ccc(Cn4ccnc4C)cc3)n2)ccc1C` [III-93, 5-Fluoro-N2-[3-(N-methylaminosulfony)-4-methylphenyl]-N4-[4-(2-methyl-1-imidazolylmethyl)phenyl]-2,4-pyrimidinediamine], the IC50 in assay [1] (setting [4]) is 173 nM; with Primary human T-cells (setting [5]), 819 nM.
Taken in the same sequence, the figures for `Cc1nccn1Cc1ccc(Nc2nc(Nc3cccc(S(N)(=O)=O)c3)ncc2F)cc1` [III-94, N2-(3-Aminosulfonylphenyl)-5-fluoro-N4-[4-(2-methyl-1-imidazolylmethyl)phenyl]-2,4-pyrimidinediamine] were 162 nM and 716 nM.
On to `NS(=O)(=O)c1ccc(Nc2ncc(F)c(Nc3ccc(Cn4ccnn4)cc3)n2)cc1` [III-96], for which the IC50 in assay [1] (setting [4]) is 3330 nM; in the assay with Primary human T-cells (setting [5]) it was 2190 nM.
`CNS(=O)(=O)c1cc(Nc2ncc(F)c(Nc3ccc(Cn4ccnn4)cc3)n2)ccc1C` [III-98, 5-Fluoro-N2-[3-(N-methylaminosulfony)-4-methylphenyl]-N4-{4-[1-(1,2,3-thazolyl)methyl]phenyl}-2,4-pyrimidinediamine]: the figures for the concentration for half-maximal inhibition (IC50) (in assay [1] (setting [4]); with Primary human T-cells (setting [5])) were 117 nM and 457 nM, respectively.
Regarding `NS(=O)(=O)c1ccc(Nc2ncc(F)c(Nc3ccc(Cn4cncn4)cc3)n2)cc1` [III-99, N2-(4-Aminosulfonylphenyl)-5-fluoro-N4-{4-[1-(1,2,4-thazolyl)methyl]phenyl}-2,4-pyrimidinediamine], the half-maximal inhibitory concentration (IC50) in assay [1] (setting [4]) was found to be 1030 nM; in the assay on Primary human T-cells (setting [5]) it was 2170 nM.
Taken in the same sequence, the figures for `Cc1ccc(Nc2ncc(F)c(Nc3ccc(Cn4cncn4)cc3)n2)cc1S(N)(=O)=O` [III-101, N2-(3-Aminosulfonyl-4-methylphenyl)-5-fluoro-N4-{4-[1-(1,2,4-thazolyl)methyl]phenyl}-2,4-pyrimidinediamine] were 240 nM and 446 nM.
Taken in the same sequence, the figures for `CNS(=O)(=O)c1cc(Nc2ncc(F)c(Nc3ccc(Cn4cncn4)cc3)n2)ccc1C` [III-102, 5-Fluoro-N2-[3-(N-methylaminosulfony)-4-methylphenyl]-N4-{4-[1-(1,2,4-thazolyl)methyl]phenyl}-2,4-pyrimidinediamine] were 302 nM and 486 nM.
As for `CCNC(=O)NCc1cccc(Nc2nc(Nc3ccc(S(N)(=O)=O)cc3)ncc2F)c1` [III-116, N2-(4-aminosulfonyl)phenyl-N4-(3-ethylaminocarbonylaminomethyl)phenyl-5-fluoro-2,4-pyrimidinediamine], the IC50 in assay [1] (setting [4]) came out at 197 nM; in the assay with Primary human T-cells (setting [5]) it was 3950 nM.
Take `CCNC(=O)NCc1cccc(Nc2nc(Nc3ccc(C)c(S(N)(=O)=O)c3)ncc2F)c1` [III-118, N2-(3-aminosulfonyl-4-methyl)phenyl-N4-(3-ethylaminocarbonylaminomethyl)phenyl-5-fluoro-2,4-pyrimidinediamine]: the IC50 turned out to be 624 nM in assay [1] (setting [4]) and 2290 nM in the assay on Primary human T-cells (setting [5]).
As to `CCNC(=O)NCc1ccc(Nc2nc(Nc3cccc(S(N)(=O)=O)c3)ncc2F)cc1` [III-120, N2-(3-Aminosulfonylphenyl]-N4-(4-ethylaminocarbonylaminomethylphenyl)-5-fluoro-2,4-pyrimidinediamine], the figures for the 50% inhibitory concentration (IC50) (in assay [1] (setting [6]); in the assay with Primary human T-cells (setting [7])) were 655 nM and 554 nM, respectively.
Regarding `CCNC(=O)NCCc1ccc(Nc2nc(Nc3cccc(S(N)(=O)=O)c3)ncc2F)cc1` [III-123, N2-(3-aminosulfonyl)phenyl-N4-[4-(2-ethylaminocarbonylamino)ethyl]phenyl-5-fluoro-2,4-pyrimidinediamine], the IC50 in assay [1] (setting [4]) worked out at 173 nM; with Primary human T-cells (setting [5]), 1390 nM.
As for `CCCN(Cc1ccc(Nc2nc(Nc3cccc(S(N)(=O)=O)c3)ncc2F)cc1)C(N)=O` [III-126, N2-(3-aminosulfonyl)phenyl-N4-[4-(N-carbamoyl-N-propyl)aminomethyl]phenyl-5-fluoro-2,4-pyrimidinediamine], the values for the 50% inhibitory concentration (IC50) (in assay [1] (setting [4]); in the assay with Primary human T-cells (setting [5])) were 197 nM and 470 nM, respectively.
Consider `CCCN(Cc1ccc(Nc2nc(Nc3ccc(C)c(S(N)(=O)=O)c3)ncc2F)cc1)C(N)=O` [III-127, N2-(3-aminosulfonyl-4-methyl)phenyl-N4-[4-(N-carbamoyl-N-propyl)aminomethyl]phenyl-5-fluoro-2,4-pyrimidinediamine], for which the concentration for half-maximal inhibition (IC50) was determined as 198 nM in assay [1] (setting [4]) and 612 nM in the assay on Primary human T-cells (setting [5]).
`NS(=O)(=O)c1ccc(Nc2ncc(F)c(Nc3ccc(-c4cnco4)cc3)n2)cc1` [IV-8, N2-(4-Aminosulfonylphenyl)-5-fluoro-N4-[4-(1,3-oxazol-5-yl)phenyl]-2,4-pyrimidinediamine]: the 50% inhibitory concentration (IC50) was found to be 166 nM in assay [1] (setting [6]) and 627 nM in the assay with Primary human T-cells (setting [7]).
For `CN(C)S(=O)(=O)c1cccc(Nc2nc(Nc3cccc(S(N)(=O)=O)c3)ncc2F)c1` [IV-9, N2-(3-Aminosulfonylphenyl)-5-fluoro-N4-[3-(N,N-dimethylaminosulfonyl)phenyl]-2,4-pyrimidinediamine], the concentration for half-maximal inhibition (IC50) in assay [1] (setting [6]) amounted to 190 nM; in the assay on Primary human T-cells (setting [7]), 1000 nM.
Taken in the same sequence, the figures for `Cc1ccc(Nc2ncc(F)c(Nc3cccc(S(=O)(=O)N(C)C)c3)n2)cc1S(N)(=O)=O` [IV-10, N2-(3-Aminosulfonyl-4-methylphenyl)-5-fluoro-N4-[3-(N,N-dimethylaminosulfonyl)phenyl]-2,4-pyrimidinediamine] were 135 nM and 714 nM.
For `CNS(=O)(=O)c1cccc(Nc2nc(Nc3ccc(C)c(S(N)(=O)=O)c3)ncc2F)c1` [IV-12, N2-(3-Aminosulfonyl-4-methylphenyl)-5-fluoro-N4-[3-(N-methylaminosulfonyl)phenyl]-2,4-pyrimidinediamine], the IC50 in assay [1] (setting [6]) was found to be 257 nM; in the assay with Primary human T-cells (setting [7]), 1220 nM.
Consider `N#Cc1cc2cc(Nc3nc(Nc4ccc(Cl)c(S(N)(=O)=O)c4)ncc3F)ccc2o1` [IX-21], for which the figures for the IC50 (in assay [1] (setting [4]); with Primary human T-cells (setting [5])) were 271 nM and 2740 nM, respectively.
As to `CC(C)c1ccc(Nc2ncc(F)c(Nc3ccc4oc(C#N)cc4c3)n2)cc1S(N)(=O)=O` [IX-22, N2-(3-Aminosulfonyl-4-iso-propylphenyl)-N4-(2-cyanobenzofuran-5-yl)-5-fluoro-2,4-pyrimidinediamine], the IC50 in assay [1] (setting [6]) was found to be 295 nM; in the assay with Primary human T-cells (setting [7]) it was 1590 nM.
As to `CC(=O)N1CCN(C(=O)c2ccc(Nc3nc(Nc4ccc(C)c(S(N)(=O)=O)c4)ncc3F)cc2)CC1` [IX-24, N4-[4-(1-Acetyl-4-piperizinyl)carbonylphenyl]-N2-(3-Aminosulfonyl-4-methylphenyl)-5-fluoro-2,4-pyrimidinediamine], the half-maximal inhibitory concentration (IC50) turned out to be 6330 nM in assay [1] (setting [4]) and 38400 nM with Primary human T-cells (setting [5]).
As for `Cc1ccc(Nc2ncc(F)c(Nc3ccc(C(=O)N4CCN(C)CC4)cc3)n2)cc1S(N)(=O)=O` [IX-27, N2-(3-Aminosulfonyl-4-methylphenyl)-5-fluoro-N4-[4-(4-methylpiperazin-1-ylcarbonyl)phenyl]-2,4-pyrimidinediamine], the half-maximal inhibitory concentration (IC50) in assay [1] (setting [6]) came out at 1380 nM; in the assay on Primary human T-cells (setting [7]) it was 7630 nM.
